The subject of assay [1] is HCT-116 cell line. The experiment in a line: Inhibition of cell growth, MTT tetrazolium salt assay. The class given is cell-based. The note with it: for IC50: Homo sapiens, HCT-116, 120 h, MTT, three to five days. In short, it runs like this: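 Growth inhibition was read as MTT-formazan absorbance at 540 nm, after 4 h with 0.2 mg/mL MTT. Before that, HCT-116 cells had been exposed 3–5 days at 37 °C to compounds in 0.5% (v/v) DMSO, added 4 h after plating. 50% and 90% inhibitory concentrations were taken from semi-log concentration–inhibition plots versus vehicle controls.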

In assay [2] the target is T1, CDK2/cyclin A (Homo sapiens, UniProt P24941).
T1 construct: made in house; host or cells: CDK2: insect cells (baculovirus); cyclin A: E. coli
In words: Inhibition of CDK2/cyclin A retinoblastoma kinase activity (Ki; % inhibition). The note with it: for Ki: apparent Ki, CDK2/cyclin A, Rb substrate. The class given is biochemical. In short, it runs like this: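 Radiometric filter assay of CDK2/proteolyzed cyclin A (baculovirus-expressed human CDK2, 10 or 19 nM) phosphorylating an Rb fragment with 25 μM [³²P/³³P]ATP in pH 7.4 HEPES, 2% DMSO, at 30 °C for 60 or 75 min under initial-rate conditions. Library compounds screened at 30 nM for % inhibition; apparent Ki from concentration series fit to competitive or tight-binding inhibition equations.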

The target in assay [3] is T2, human CDK4/cyclin D3 (Homo sapiens, UniProt P11802).
T2 construct: made in house; host or cells: insect cells co-infected with baculovirus vectors
T2 sequence (P11802 whole entry): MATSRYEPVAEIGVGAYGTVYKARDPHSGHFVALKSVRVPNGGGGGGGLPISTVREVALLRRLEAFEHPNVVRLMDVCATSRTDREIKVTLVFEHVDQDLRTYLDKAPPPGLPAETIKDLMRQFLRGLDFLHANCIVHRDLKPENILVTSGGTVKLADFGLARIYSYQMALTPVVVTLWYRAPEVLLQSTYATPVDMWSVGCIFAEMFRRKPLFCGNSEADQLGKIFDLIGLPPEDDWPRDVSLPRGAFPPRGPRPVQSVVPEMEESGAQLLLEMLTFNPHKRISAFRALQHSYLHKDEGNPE
T2 sequence (P30281 1-264 partner limits assumed): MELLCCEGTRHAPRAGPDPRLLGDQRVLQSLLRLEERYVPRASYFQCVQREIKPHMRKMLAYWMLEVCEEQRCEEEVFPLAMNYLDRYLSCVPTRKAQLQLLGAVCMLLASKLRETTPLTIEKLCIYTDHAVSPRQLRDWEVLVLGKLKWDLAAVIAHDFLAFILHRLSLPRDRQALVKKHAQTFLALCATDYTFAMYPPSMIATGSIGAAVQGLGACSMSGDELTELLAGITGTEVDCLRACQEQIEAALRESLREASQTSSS
The experiment in a line: Inhibition of CDK4/cyclin D retinoblastoma kinase activity (Ki; % inhibition). The class given is biochemical. The note with it: for Ki: apparent Ki, CDK4/cyclin D3, Rb substrate. In short, it runs like this: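 Insect-cell-expressed CDK4 with truncated cyclin D3 (1-264), 5 nM, phosphorylating His-tagged Rb fragment (386-928) with 25 μM [32/33P]ATP at pH 7.4, 30 °C, 20 min (60 min for tight binders). Filter capture, phosphorimager read; % inhibition at 30 nM compound, Ki from competitive or tight-binding fits.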

[4] abbreviates: HCT-116 cells, 0.25 μM compound.

Regarding `Nc1nc(Nc2ccc(C(=O)NCc3cc(Cl)ccc3Cl)cc2)sc1C(=O)c1c(F)cccc1F` [Example G286], the “HCT-116 % Inhibition at 0.1 μM” value in assay [1] (HCT-116 cells, 0.1 μM compound) is given as 10%. In addition, the “HCT-116 % Inhibition at 0.25 μM” value in assay [1] (setting [4]) is reported as 60%. The “CDK2 % Inhibition at 0.03 μM” value in assay [2] (0.03 μM compound) was determined as 23%. Besides, the “CDK4 % Inhibition at 0.03 μM” value in assay [3] (0.03 μM compound) came to 25%.

On to `COc1ccc(NC(=O)c2ccc(Nc3nc(N)c(C(=O)c4c(F)cccc4F)s3)cc2)c(OC)c1` [Example G45], for which the “HCT-116 % Inhibition at 0.25 μM” value in assay [1] (HCT-116, at 0.25 μM) is on record as 89%. Also, in assay [2] (at 0.03 μM), the “CDK2 % Inhibition at 0.03 μM” value worked out at 16%. Also, the “CDK4 % Inhibition at 0.03 μM” value in assay [3] (at 0.03 μM) is 16%.

With `CCCCN(CC)CCNC(=O)c1ccc(Nc2nc(N)c(C(=O)c3c(F)cccc3F)s2)cc1` [Example G331], the “HCT-116 % Inhibition at 0.1 μM” value in assay [1] (HCT-116 cells, 0.1 μM compound) is recorded as 54%. Besides, in assay [1] (setting [4]), the “HCT-116 % Inhibition at 0.25 μM” value came to 93%. Besides, in assay [2] (0.03 μM compound), the “CDK2 % Inhibition at 0.03 μM” value is 1%. The “CDK4 % Inhibition at 0.03 μM” value in assay [3] (0.03 μM compound) amounted to 37%.

For the compound `CCN(CC)CCCC(C)NC(=O)c1ccc(Nc2nc(N)c(C(=O)c3c(F)cccc3F)s2)cc1` (stereo not drawn) [Example G239], the “HCT-116 % Inhibition at 0.1 μM” value in assay [1] (HCT-116 cells, 0.1 μM compound) worked out at 21%. The “HCT-116 % Inhibition at 0.25 μM” value in assay [1] (setting [4]) worked out at 50%. Moreover, the “CDK2 % Inhibition at 0.03 μM” value in assay [2] (0.03 μM compound) is recorded as 15%. Besides, the “CDK4 % Inhibition at 0.03 μM” value in assay [3] (0.03 μM compound) is 27%.

With `Nc1nc(Nc2ccc(C(=O)Nc3cccc(Br)c3)cc2)sc1C(=O)c1c(F)cccc1F` [Example G287], the “HCT-116 % Inhibition at 0.1 μM” value in assay [1] (HCT-116 cells, 0.1 μM compound) is 9%. Besides, the “HCT-116 % Inhibition at 0.25 μM” value in assay [1] (setting [4]) is listed as 32%. The “CDK2 % Inhibition at 0.03 μM” value in assay [2] (0.03 μM compound) was −8%. Moreover, the “CDK4 % Inhibition at 0.03 μM” value in assay [3] (0.03 μM compound) was found to be 7%.

As for `CN1[C@@H]2CC[C@@H](C2)[C@@H]1CNC(=O)c1ccc(Nc2nc(N)c(C(=O)c3c(F)cccc3F)s2)cc1` (relative stereo) [Example A76, 4-[4-Amino-5-(2,6-difluoro-benzoyl)-thiazol-2-ylamino]-N-(2-methyl-2-aza-bicyclo[2.2.1]hept-3-endo-ylmethyl)-benzamide], the IC50 in assay [1] is 1100 nM. The Ki in assay [2] came out at 15 nM; in assay [3], 120 nM.

In the case of `Nc1nc(Nc2ccc(C(=O)N(CCO)Cc3ccccc3)cc2)sc1C(=O)c1c(F)cccc1F` [Example G379], in assay [1] (HCT-116 cells, 0.1 μM compound), the “HCT-116 % Inhibition at 0.1 μM” value amounted to 31%. Moreover, the “HCT-116 % Inhibition at 0.25 μM” value in assay [1] (setting [4]) came to 54%. Further, in assay [2] (0.03 μM compound), the “CDK2 % Inhibition at 0.03 μM” value is on record as 13%. Besides, the “CDK4 % Inhibition at 0.03 μM” value in assay [3] (0.03 μM compound) was 8%.

In the case of `CC(C)C(CO)NC(=O)c1ccc(Nc2nc(N)c(C(=O)c3c(F)cccc3F)s2)cc1` (stereo not drawn) [Example G102], the “HCT-116 % Inhibition at 0.1 μM” value in assay [1] (HCT-116, at 0.1 μM) came out at 18%. The “HCT-116 % Inhibition at 0.25 μM” value in assay [1] (HCT-116, at 0.25 μM) was determined as 55%. Besides, the “CDK2 % Inhibition at 0.03 μM” value in assay [2] (at 0.03 μM) was −3%. In addition, the “CDK4 % Inhibition at 0.03 μM” value in assay [3] (at 0.03 μM) was 18%.

For `CN(C)CCNC(=O)c1ccc(Nc2nc(N)c(C(=O)c3c(F)cccc3F)s2)cc1` [Example G149], the “HCT-116 % Inhibition at 0.1 μM” value in assay [1] (HCT-116, at 0.1 μM) is 10%. In assay [1] (HCT-116, at 0.25 μM), the “HCT-116 % Inhibition at 0.25 μM” value came to 82%. The “CDK2 % Inhibition at 0.03 μM” value in assay [2] (at 0.03 μM) is listed as 23%. The “CDK4 % Inhibition at 0.03 μM” value in assay [3] (at 0.03 μM) worked out at 36%.

Consider `CC(CNC(=O)c1ccc(Nc2nc(N)c(C(=O)c3c(F)cccc3F)s2)cc1)N(C)C` (stereo not drawn) [Example G92], for which the “HCT-116 % Inhibition at 0.1 μM” value in assay [1] (HCT-116, at 0.1 μM) is on record as 85%. In assay [1] (HCT-116, at 0.25 μM), the “HCT-116 % Inhibition at 0.25 μM” value is on record as 98%. Also, the “CDK2 % Inhibition at 0.03 μM” value in assay [2] (at 0.03 μM) is given as −7%. In addition, the “CDK4 % Inhibition at 0.03 μM” value in assay [3] (at 0.03 μM) is on record as 10%.

As for `Nc1nc(Nc2ccc(C(=O)NCCN3CCOCC3)cc2)sc1C(=O)c1c(F)cccc1F` [Example A1, 4-[4-Amino-5-(2,6-difluoro-benzoyl)-thiazol-2-ylamino]-N-(2-morpholin-4-yl-ethyl)-benzamide], in assay [1], the 50% inhibitory concentration (IC50) worked out at 750 nM. Moreover, the Ki in assay [2] is 140 nM; in assay [3], 27 nM.

In the case of `COCCN(C)C(=O)c1ccc(Nc2nc(N)c(C(=O)c3c(F)cccc3F)s2)cc1` [Example G13], the “HCT-116 % Inhibition at 0.25 μM” value in assay [1] (HCT-116, at 0.25 μM) worked out at 44%. The “CDK2 % Inhibition at 0.03 μM” value in assay [2] (at 0.03 μM) is on record as −16%. In addition, in assay [3] (at 0.03 μM), the “CDK4 % Inhibition at 0.03 μM” value amounted to 0%.

For `CN(C)CCCNC(=O)c1ccc(Nc2nc(N)c(C(=O)c3c(F)cccc3F)s2)cc1` [Example G119], the “HCT-116 % Inhibition at 0.1 μM” value in assay [1] (HCT-116, at 0.1 μM) worked out at 0%. Moreover, the “HCT-116 % Inhibition at 0.25 μM” value in assay [1] (HCT-116, at 0.25 μM) is 64%. The “CDK2 % Inhibition at 0.03 μM” value in assay [2] (at 0.03 μM) came to 11%. Further, the “CDK4 % Inhibition at 0.03 μM” value in assay [3] (at 0.03 μM) is listed as 31%.

`CCCN(CC1CC1)C(=O)c1ccc(Nc2nc(N)c(C(=O)c3c(F)cccc3F)s2)cc1` [Example G1]: in assay [1] (HCT-116, at 0.25 μM), the “HCT-116 % Inhibition at 0.25 μM” value is listed as 56%. Besides, in assay [2] (at 0.03 μM), the “CDK2 % Inhibition at 0.03 μM” value was −3%. The “CDK4 % Inhibition at 0.03 μM” value in assay [3] (at 0.03 μM) is −10%.

Values taken from patent US6720346B2, “Thiazole benzamide derivatives and pharmaceutical compositions for inhibiting cell proliferation” (Agouron Pharmaceuticals, Inc., priority 2001, dated 2004).
